Results from ChEMBL document CHEMBL4130529, “From PIM1 to PI3Kδ via GSK3β: Target Hopping through the Kinome” (ACS Med Chem Lett, 2017).

Tests used:
[1] = target: Serine/threonine-protein kinase pim-1 (Homo sapiens, UniProt P11309); assay: Inhibition of PIM1 (unknown origin) using TAMRA-ERMRPRKRQGSVRRRV-NH2 as substrate pretreated for 30 mins followed by substrate addition measured after 1 hr by IMAP assay
[2] = target: T1, Glycogen synthase kinase-3 beta (Homo sapiens, UniProt P49841); assay: Inhibition of GSK3beta (unknown origin) after 1 hr by fluorescence polarization assay
T1 sequence (P49841 whole entry, canonical isoform): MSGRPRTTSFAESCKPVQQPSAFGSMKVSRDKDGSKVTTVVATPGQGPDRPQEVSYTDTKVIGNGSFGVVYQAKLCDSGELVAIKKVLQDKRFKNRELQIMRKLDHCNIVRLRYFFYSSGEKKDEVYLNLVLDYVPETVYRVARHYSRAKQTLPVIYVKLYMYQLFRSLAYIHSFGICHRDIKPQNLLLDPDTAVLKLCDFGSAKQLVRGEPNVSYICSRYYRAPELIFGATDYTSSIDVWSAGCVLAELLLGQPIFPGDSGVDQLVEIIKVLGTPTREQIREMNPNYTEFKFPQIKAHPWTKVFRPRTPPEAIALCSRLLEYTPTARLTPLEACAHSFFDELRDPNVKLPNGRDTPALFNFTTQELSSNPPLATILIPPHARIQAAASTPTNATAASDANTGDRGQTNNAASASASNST

[3] = target: T2, Phosphatidylinositol 4,5-bisphosphate 3-kinase catalytic subunit delta isoform (Homo sapiens, UniProt O00329); assay: Inhibition of PI3Kdelta (unknown origin) using PIP2 as substrate pretreated for 15 mins followed by substrate addition measured after 1 hr
T2 sequence (O00329 whole entry): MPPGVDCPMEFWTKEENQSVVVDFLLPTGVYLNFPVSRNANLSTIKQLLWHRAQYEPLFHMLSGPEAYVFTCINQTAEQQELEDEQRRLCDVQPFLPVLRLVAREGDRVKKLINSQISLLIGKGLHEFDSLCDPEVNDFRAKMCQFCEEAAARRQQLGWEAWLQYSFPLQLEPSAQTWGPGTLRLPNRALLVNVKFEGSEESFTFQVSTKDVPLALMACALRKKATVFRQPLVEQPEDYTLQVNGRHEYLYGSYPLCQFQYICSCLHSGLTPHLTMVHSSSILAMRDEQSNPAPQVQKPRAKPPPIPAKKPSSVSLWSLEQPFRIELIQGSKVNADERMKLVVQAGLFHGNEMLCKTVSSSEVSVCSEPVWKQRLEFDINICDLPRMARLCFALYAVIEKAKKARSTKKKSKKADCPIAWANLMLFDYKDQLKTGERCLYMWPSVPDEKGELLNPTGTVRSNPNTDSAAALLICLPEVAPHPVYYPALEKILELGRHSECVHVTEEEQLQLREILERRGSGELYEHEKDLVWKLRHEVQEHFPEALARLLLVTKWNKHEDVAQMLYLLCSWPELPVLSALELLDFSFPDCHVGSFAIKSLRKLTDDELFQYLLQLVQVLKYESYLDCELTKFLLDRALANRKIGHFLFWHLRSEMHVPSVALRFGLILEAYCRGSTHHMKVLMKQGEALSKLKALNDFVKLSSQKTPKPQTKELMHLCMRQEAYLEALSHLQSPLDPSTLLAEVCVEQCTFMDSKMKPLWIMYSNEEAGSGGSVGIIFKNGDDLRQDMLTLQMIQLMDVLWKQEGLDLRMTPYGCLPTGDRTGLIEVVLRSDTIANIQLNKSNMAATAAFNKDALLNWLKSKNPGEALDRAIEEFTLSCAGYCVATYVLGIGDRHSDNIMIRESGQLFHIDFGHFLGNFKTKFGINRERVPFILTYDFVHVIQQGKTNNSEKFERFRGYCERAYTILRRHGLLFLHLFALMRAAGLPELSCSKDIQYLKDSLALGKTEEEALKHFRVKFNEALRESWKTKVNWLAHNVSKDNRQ

[4] = target: Phosphatidylinositol 4,5-bisphosphate 3-kinase catalytic subunit alpha isoform (Homo sapiens, UniProt P42336); assay: Inhibition of PI3Kalpha (unknown origin) using PIP2 as substrate pretreated for 15 mins followed by substrate addition measured after 1 hr
Phosphatidylinositol 4,5-bisphosphate 3-kinase catalytic subunit alpha isoform, sequence (P42336 whole entry, canonical isoform): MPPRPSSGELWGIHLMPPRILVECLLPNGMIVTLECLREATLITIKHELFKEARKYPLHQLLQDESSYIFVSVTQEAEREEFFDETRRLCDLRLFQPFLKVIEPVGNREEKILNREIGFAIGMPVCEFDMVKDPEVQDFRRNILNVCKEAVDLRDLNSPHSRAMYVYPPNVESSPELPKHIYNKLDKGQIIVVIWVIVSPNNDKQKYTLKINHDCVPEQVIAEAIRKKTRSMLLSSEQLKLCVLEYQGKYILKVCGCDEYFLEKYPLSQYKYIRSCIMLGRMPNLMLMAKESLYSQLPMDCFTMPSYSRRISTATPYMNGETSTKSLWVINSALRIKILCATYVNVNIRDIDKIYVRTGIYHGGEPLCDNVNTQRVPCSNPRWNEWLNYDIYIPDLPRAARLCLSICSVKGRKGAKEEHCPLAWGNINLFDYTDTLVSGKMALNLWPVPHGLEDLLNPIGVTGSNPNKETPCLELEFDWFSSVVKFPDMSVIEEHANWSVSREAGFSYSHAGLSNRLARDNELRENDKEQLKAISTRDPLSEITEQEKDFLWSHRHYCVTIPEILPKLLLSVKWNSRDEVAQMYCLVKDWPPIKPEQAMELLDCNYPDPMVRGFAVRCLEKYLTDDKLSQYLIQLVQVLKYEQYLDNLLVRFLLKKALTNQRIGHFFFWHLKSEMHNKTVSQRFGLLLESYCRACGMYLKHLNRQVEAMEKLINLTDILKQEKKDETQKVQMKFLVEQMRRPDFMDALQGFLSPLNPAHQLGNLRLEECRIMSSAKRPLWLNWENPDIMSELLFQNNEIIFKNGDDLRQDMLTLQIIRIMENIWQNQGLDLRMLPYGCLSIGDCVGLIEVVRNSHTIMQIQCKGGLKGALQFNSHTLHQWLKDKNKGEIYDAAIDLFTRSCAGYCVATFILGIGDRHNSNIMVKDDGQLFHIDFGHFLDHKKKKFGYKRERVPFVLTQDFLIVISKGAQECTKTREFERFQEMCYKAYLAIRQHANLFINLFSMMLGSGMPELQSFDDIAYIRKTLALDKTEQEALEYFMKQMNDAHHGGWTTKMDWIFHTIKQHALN

[5] = target: Phosphatidylinositol 4,5-bisphosphate 3-kinase catalytic subunit beta isoform (Homo sapiens, UniProt P42338); assay: Inhibition of PI3Kbeta (unknown origin) using PIP2 as substrate pretreated for 15 mins followed by substrate addition measured after 1 hr
Phosphatidylinositol 4,5-bisphosphate 3-kinase catalytic subunit beta isoform, sequence (P42338 whole entry, canonical isoform): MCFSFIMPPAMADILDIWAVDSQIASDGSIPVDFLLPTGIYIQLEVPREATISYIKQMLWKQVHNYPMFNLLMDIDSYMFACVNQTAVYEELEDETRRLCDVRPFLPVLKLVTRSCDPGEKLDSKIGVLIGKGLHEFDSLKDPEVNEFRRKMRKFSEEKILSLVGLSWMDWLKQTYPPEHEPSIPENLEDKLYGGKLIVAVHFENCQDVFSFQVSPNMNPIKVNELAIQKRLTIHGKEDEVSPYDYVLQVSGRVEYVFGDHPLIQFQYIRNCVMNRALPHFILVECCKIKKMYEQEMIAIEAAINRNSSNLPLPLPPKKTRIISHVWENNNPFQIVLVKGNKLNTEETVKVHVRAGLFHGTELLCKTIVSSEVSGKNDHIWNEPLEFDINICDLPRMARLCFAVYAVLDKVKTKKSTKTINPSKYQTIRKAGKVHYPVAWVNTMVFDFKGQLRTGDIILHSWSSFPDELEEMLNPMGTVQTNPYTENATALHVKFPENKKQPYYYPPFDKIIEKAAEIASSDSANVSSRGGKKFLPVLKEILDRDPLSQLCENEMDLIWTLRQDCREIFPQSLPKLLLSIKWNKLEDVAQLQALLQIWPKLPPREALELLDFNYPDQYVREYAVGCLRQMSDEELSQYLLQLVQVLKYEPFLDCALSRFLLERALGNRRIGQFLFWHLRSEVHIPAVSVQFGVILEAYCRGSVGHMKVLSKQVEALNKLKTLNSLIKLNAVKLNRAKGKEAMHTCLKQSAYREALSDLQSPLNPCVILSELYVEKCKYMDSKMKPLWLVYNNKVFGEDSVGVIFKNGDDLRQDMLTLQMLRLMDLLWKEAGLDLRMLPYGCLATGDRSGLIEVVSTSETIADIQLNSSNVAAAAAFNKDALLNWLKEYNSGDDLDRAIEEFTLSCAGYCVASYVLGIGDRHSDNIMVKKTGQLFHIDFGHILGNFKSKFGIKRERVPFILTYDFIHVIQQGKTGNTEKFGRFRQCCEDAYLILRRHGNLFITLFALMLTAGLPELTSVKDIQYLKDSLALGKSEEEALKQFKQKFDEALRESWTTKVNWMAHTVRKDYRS

[6] = target: Phosphatidylinositol 4,5-bisphosphate 3-kinase catalytic subunit gamma isoform (Homo sapiens, UniProt P48736); assay: Inhibition of PI3Kgamma (unknown origin) using PIP2 as substrate pretreated for 15 mins followed by substrate addition measured after 1 hr
Phosphatidylinositol 4,5-bisphosphate 3-kinase catalytic subunit gamma isoform, sequence (P48736 whole entry, canonical isoform): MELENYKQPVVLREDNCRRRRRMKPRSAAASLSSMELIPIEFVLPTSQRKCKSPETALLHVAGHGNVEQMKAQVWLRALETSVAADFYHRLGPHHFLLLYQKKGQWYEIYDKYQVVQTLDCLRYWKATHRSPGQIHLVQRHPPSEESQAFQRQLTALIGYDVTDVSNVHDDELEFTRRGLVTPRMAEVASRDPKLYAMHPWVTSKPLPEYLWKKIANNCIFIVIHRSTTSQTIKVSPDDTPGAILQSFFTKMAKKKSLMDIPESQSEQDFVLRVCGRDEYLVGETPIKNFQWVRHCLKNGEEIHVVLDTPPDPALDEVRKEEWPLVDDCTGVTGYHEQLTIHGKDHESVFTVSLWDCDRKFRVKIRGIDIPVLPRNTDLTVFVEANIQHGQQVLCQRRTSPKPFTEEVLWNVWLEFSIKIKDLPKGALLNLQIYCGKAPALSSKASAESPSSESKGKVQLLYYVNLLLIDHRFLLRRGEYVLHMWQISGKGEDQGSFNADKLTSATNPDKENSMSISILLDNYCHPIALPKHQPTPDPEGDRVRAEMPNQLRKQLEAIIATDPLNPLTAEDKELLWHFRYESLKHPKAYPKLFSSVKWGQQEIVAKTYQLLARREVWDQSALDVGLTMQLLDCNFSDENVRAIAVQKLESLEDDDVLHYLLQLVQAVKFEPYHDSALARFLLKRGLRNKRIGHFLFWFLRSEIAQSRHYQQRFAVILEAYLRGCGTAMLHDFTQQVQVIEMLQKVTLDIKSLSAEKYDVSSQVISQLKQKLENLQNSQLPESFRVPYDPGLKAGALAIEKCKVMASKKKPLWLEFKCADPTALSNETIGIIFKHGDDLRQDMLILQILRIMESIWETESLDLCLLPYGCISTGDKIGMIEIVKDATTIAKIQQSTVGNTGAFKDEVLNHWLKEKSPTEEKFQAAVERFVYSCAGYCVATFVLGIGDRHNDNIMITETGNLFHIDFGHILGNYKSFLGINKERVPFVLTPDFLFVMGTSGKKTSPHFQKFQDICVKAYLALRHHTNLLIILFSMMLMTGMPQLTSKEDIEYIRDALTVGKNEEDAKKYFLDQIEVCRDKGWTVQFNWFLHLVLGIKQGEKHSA

[7] = target: T1, Glycogen synthase kinase-3 beta; assay: Inhibition of human GSK3beta using YRRAAVPPSPSLSRHSSPHQ(pS)EDEEE as substrate in presence of [gamma-33P]-ATP
Homo sapiens = organism: Homo sapiens; assay: Selectivity ratio of pIC50 for ALK5 (unknown origin) to pIC50 for PI3Kdelta (unknown origin)

Serine/threonine-protein kinase pim-1, sequence (P11309 whole entry): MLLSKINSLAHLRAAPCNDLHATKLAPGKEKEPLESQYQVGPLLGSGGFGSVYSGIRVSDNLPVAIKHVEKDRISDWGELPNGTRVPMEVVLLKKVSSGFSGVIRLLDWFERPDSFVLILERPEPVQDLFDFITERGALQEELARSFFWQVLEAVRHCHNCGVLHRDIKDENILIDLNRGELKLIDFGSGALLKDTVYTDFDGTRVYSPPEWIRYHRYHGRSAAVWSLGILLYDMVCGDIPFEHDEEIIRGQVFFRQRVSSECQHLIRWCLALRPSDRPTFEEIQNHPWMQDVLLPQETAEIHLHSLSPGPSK

| IC50 [1] [µM] | IC50 [2] [µM] | IC50 [3] [µM] | IC50 [4] [µM] | IC50 [5] [µM] | IC50 [6] [µM] | SMILES | IC50 [7] [µM] | Ratio IC50 (Homo sapiens) |
| --- | --- | --- | --- | --- | --- | --- | --- | --- |
| 15.8 | 7.94 | 1 | > 25.1 | 25.1 | > 25.1 | O=C(Nc1cc(-c2cccc3[nH]ccc23)cc2[nH]ncc12)C1CC1 | – | – |
| 2 | 1.58 | 1.58 | 25.1 | 31.6 | 7.94 | O=C(Nc1cc(-c2cccc(O)c2)cc2[nH]ncc12)c1ccccn1 | – | – |
| – | > 25.1 | 3.16 | 25.1 | 12.6 | 15.8 | O=C(Nc1cc(-c2ccc3cc[nH]c3c2)cc2[nH]ncc12)c1ccccn1 | – | – |
| 0.316 | 0.631 | 6.31 | 25.1 | 25.1 | > 25.1 | O=C(Nc1cc(-c2ccc(O)cc2)cc2[nH]ncc12)C1CC1 | – | – |
| 15.8 | 31.6 | 20 | 25.1 | > 25.1 | 25.1 | O=C(Nc1cc(-c2ccccc2)cc2[nH]ncc12)C1CC1 | – | – |
| – | – | 25.1 | > 25.1 | > 25.1 | > 25.1 | O=C(Nc1n[nH]c2cc(-c3ccc(O)cc3)ccc12)C1CC1 | – | – |
| 2.51 | 1.26 | 3.98 | 20 | 20 | 7.94 | O=C(Nc1cc(-c2cccc(O)c2)cc2[nH]ncc12)C1CC1 | – | – |

| SMILES | IC50 [1] [µM] | IC50 [2] [µM] | IC50 [3] [µM] | IC50 [4] [µM] | IC50 [5] [µM] | IC50 [6] [µM] | IC50 [7] [µM] | Ratio IC50 (Homo sapiens) |
| --- | --- | --- | --- | --- | --- | --- | --- | --- |
| O=C(Nc1cc(-c2ccc(O)cc2)cc2[nH]ncc12)c1ccccn1 | 0.126 | – | 0.501 | > 25.1 | > 25.1 | 5.01 | 1.58 | – |
| O=C(Nc1cc(-c2cccc3[nH]ccc23)cc2[nH]ncc12)c1ccccn1 | 2.51 | 3.16 | – | – | – | – | 20 | < 10 |
